Experimental data from publication PMC4503722, “Novel Phenotypic Outcomes Identified for a Public Collection of Approved Drugs from a Publicly Accessible Panel of Assays” (PLoS ONE, 2015).
Read-outs that look alike come from different tables or passages of the source.

Columns and labels:
[1] = test system: DLD-1; assay: cells; format: cell-based
[2] = test system: RKO; assay: cells; format: cell-based
[3] = test system: endothelial tube formation in co-cultures of ECFCs and ADSCs treated with VEGF; assay: cells; format: cell-based, human
[4] = target: T1, hGSK3b (Homo sapiens, UniProt P49841); assay: Cerep LANCE kinase assay hGSK3b (S1 assay 34); format: biochemical; conditions: read-out: GSK3b
T1 construct: purchased Cerep (LANCE kinase assay platform, contract assay)
T1 sequence (P49841 whole entry): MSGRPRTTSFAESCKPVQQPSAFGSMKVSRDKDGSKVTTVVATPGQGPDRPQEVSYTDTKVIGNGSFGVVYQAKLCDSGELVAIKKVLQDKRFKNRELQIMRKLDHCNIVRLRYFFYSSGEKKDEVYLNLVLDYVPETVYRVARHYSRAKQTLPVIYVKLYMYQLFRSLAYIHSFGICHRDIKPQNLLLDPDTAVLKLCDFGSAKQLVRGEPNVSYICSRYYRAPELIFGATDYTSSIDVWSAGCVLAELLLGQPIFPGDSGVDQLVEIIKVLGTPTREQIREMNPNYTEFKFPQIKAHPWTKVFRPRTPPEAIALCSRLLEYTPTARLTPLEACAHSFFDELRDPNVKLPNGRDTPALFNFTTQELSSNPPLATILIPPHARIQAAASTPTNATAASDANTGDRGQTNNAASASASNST

[5] = test system: SW480; assay: cells; format: cell-based
[6] = test system: nuclear β-catenin in C2C12 cells; assay: cells; format: cell-based
[7] = test system: HCT116; assay: cells; format: cell-based
[8] = test system: INS-1E cells; assay: cells; format: cell-based, rat; conditions: INS-1E
[9] = test system: HeLa cells; assay: cells; format: cell-based; conditions: HeLa, read-out: CellCycle G2/M
[10] = test system: SNU-C1; assay: cells; format: cell-based
[11] = test system: Colo320; assay: cells; format: cell-based
[12] = test system: HT-29; assay: cells; format: cell-based
[13] = target: T2, hp70S6K1 (RPS6KB1) (Homo sapiens, UniProt P23443); assay: Cerep LANCE kinase assay hp70S6K1 (S1 assay 31); format: biochemical; conditions: read-out: p70S6K1
T2 construct: purchased Cerep (LANCE kinase assay platform, contract assay)
T2 sequence (P23443 whole entry): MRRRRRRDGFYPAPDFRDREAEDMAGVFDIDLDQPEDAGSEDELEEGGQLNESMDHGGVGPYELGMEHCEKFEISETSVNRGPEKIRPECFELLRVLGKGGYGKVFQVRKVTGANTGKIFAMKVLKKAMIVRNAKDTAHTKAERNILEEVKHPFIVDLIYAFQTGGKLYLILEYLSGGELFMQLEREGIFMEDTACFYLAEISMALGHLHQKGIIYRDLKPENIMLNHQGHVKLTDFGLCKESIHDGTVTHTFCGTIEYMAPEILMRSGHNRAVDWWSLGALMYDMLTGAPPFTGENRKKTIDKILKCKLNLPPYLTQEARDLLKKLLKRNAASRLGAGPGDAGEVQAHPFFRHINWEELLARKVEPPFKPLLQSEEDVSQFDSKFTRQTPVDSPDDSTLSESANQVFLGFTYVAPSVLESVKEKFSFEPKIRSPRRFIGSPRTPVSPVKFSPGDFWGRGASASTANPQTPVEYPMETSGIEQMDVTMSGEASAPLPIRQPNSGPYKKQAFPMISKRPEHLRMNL

[14] = target: T3, hJAK2 (Homo sapiens, UniProt O60674); assay: Cerep LANCE kinase assay hJAK2 (S1 assay 33); format: biochemical; conditions: read-out: JAK2
T3 construct: purchased Cerep (LANCE kinase assay platform, contract assay)
T3 sequence (O60674 whole entry): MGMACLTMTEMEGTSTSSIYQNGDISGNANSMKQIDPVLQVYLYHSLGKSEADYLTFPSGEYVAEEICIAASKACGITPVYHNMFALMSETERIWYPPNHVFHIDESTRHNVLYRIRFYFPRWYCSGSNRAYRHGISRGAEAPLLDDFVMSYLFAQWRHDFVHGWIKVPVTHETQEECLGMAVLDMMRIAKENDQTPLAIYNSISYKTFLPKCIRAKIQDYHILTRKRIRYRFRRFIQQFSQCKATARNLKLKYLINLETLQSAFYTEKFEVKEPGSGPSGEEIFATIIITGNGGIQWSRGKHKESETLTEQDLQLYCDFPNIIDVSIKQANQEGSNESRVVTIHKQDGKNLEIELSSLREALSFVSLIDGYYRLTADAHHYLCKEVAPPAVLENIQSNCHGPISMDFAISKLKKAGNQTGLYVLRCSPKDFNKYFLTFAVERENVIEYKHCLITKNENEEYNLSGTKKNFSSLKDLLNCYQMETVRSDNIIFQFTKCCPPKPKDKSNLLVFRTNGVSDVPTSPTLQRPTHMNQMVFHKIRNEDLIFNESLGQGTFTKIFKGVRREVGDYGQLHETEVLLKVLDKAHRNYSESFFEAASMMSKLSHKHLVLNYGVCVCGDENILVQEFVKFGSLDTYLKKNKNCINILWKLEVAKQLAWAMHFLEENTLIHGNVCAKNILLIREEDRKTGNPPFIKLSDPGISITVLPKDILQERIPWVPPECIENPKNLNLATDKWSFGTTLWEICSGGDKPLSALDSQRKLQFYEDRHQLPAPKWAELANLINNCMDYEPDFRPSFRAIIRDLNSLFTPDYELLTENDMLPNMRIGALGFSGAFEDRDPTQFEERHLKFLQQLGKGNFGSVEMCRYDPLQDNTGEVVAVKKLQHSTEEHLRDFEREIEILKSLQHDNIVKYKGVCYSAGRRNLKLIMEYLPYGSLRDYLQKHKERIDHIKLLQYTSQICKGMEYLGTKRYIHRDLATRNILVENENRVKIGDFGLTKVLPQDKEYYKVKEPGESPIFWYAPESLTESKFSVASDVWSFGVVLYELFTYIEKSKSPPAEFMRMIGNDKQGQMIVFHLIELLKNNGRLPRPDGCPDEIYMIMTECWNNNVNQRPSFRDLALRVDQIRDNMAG

[15] = test system: HCT116 cells treated with a GSK3β inhibitor; assay: cells; format: cell-based
[16] = test system: NCI-H716 cells; assay: cells; format: cell-based, Human
[17] = target: T4, hFLT3 (Homo sapiens, UniProt P36888); assay: Cerep LANCE kinase assay hFLT3 (S1 assay 35); format: biochemical; conditions: read-out: FLT3
T4 construct: purchased Cerep (LANCE kinase assay platform, contract assay)
T4 sequence (P36888 27-993): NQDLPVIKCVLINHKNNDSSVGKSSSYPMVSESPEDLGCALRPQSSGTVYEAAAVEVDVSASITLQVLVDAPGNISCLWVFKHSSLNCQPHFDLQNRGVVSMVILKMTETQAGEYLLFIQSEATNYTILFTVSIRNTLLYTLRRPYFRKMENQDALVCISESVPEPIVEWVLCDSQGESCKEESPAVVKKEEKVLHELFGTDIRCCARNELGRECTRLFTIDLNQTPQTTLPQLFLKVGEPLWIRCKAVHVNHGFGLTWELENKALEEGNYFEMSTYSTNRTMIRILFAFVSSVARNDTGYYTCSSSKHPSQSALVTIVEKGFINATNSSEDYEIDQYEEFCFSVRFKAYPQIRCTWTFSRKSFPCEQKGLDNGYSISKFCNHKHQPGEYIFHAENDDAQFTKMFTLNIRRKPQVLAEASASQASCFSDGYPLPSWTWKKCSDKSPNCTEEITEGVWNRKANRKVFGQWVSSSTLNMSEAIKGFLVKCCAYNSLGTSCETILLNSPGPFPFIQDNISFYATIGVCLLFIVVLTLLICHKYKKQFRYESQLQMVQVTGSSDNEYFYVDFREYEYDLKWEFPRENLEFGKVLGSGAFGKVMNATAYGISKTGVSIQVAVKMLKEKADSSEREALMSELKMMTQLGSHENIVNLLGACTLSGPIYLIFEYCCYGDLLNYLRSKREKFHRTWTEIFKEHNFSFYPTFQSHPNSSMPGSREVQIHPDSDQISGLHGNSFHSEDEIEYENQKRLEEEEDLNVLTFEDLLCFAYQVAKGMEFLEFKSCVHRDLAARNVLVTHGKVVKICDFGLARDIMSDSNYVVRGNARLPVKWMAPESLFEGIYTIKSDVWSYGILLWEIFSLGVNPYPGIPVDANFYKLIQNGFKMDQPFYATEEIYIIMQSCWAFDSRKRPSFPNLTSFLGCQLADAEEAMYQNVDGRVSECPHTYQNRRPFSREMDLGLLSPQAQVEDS

[18] = target: T5, hKDR (Homo sapiens, UniProt P35968); assay: Cerep LANCE kinase assay hKDR (S1 assay 32); format: biochemical; conditions: read-out: KDR
T5 construct: purchased Cerep (LANCE kinase assay platform, contract assay)
T5 sequence (P35968 20-1356): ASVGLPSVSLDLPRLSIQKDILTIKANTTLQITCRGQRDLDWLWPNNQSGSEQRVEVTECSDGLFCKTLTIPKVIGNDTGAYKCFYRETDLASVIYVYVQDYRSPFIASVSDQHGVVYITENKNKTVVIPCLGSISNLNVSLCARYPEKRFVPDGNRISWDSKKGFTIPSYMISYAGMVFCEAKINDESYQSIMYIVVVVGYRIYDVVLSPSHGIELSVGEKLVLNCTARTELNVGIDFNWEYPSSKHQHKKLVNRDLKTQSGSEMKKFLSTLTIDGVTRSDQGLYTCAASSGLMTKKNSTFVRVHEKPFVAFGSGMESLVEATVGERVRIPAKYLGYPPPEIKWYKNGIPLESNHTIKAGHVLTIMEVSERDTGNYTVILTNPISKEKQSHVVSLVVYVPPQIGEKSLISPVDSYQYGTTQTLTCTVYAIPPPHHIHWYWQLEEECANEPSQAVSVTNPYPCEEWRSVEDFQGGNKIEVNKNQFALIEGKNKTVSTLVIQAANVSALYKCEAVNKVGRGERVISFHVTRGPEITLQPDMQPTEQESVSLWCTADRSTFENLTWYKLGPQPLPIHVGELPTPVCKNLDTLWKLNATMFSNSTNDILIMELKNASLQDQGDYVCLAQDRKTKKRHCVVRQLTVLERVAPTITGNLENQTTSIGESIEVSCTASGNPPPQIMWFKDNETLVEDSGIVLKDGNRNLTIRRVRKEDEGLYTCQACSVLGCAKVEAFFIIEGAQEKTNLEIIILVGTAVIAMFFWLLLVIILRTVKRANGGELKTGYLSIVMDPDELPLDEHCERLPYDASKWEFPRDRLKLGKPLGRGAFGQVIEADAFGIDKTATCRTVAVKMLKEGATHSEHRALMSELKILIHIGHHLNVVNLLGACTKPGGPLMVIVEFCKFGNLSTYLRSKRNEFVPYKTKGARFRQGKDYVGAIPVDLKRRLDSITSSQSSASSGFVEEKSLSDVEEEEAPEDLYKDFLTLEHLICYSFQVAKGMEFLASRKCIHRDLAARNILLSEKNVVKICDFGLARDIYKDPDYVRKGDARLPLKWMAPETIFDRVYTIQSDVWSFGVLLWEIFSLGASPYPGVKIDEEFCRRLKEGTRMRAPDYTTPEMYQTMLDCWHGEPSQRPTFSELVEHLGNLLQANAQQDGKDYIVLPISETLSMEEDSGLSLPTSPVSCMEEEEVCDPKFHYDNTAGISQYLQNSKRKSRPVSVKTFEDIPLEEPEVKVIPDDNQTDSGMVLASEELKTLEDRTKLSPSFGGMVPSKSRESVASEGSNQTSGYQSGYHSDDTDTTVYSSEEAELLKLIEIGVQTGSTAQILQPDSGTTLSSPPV

[19] = Homo sapiens, DLD-1, 72 h, read-out: DLD-1 viab. IC50
[20] = Homo sapiens, DLD-1, read-out: Basal_Viability ATP DLD-1
[21] = Homo sapiens, RKO, 72 h, read-out: RKO viab. IC50
[22] = Homo sapiens, RKO, read-out: Basal_Viability ATP RKO
[23] = Homo sapiens, read-out: Anti-Angio IC50
[24] = Homo sapiens, read-out: Anti-Angiogenesis
[25] = Homo sapiens, SW480, 72 h, read-out: SW480 viab. IC50
[26] = Homo sapiens, SW480, read-out: Basal_Viability ATP SW480
[27] = Mus musculus, C2C12, read-out: Wnt Pathway
[28] = Mus musculus, C2C12, read-out: Wnt pot. EC50
[29] = Homo sapiens, HCT-116, 72 h, read-out: HCT-116 viab. IC50
[30] = Homo sapiens, HCT-116, read-out: Basal_Viability ATP HCT116
[31] = Rattus norvegicus, read-out: Ins. sec. EC50
[32] = Homo sapiens, SNU-C1, 72 h, read-out: SNU-C1 viab. IC50
[33] = Homo sapiens, SNU-C1, read-out: Basal_Viability ATP SNU-C1
[34] = Homo sapiens, COLO 320, 72 h, read-out: Colo320 viab. IC50
[35] = Homo sapiens, COLO 320, read-out: Basal_Viability ATP Colo 320
[36] = Homo sapiens, HT-29, 72 h, read-out: HT-29 viab. IC50
[37] = Homo sapiens, HT-29, read-out: Basal_Viability ATP HT-29
[38] = Homo sapiens, HCT-116, 72 h, read-out: HCT-116 (GSK3β) viab. IC50
[39] = Homo sapiens, HCT-116, read-out: GSK3b inh pretreated_Viability ATP HCT116
[40] = Homo sapiens, NCI-H716, read-out: GLP1 sec. EC50
[41] = Rattus norvegicus, read-out: Insulin Secretion
[42] = Homo sapiens, NCI-H716, read-out: GLP 1 Secretion

| SMILES | IC50 [4] | IC50 [13] | IC50 [14] | IC50 [17] | IC50 [18] | IC50 [1, 19] | IC50 [1, 20] | IC50 [2, 21] | IC50 [2, 22] | IC50 [3, 23] | IC50 [3, 24] | IC50 [5, 25] | IC50 [5, 26] | EC50 [6, 27] | IC50 [7, 30] | EC50 ([9]; Homo sapiens) | IC50 [10, 33] | IC50 [11, 35] | IC50 [12, 37] | IC50 [15, 39] | also measured |
| --- | --- | --- | --- | --- | --- | --- | --- | --- | --- | --- | --- | --- | --- | --- | --- | --- | --- | --- | --- | --- | --- |
| O=C(CCl)c1ccc(Cl)cc1Cl [2,2',4'-Trichloroacetophenone] | > 20000 nM | > 20000 nM | > 20000 nM | > 20000 nM | > 20000 nM |  |  |  |  |  |  |  |  |  |  |  |  |  |  |  | IC50 ([1]; basal, read-out: Basal_Viability ATP DLD-1): 2070 nM; IC50 ([2]; basal, read-out: Basal_Viability ATP RKO): 4300 nM; IC50 ([3]; IC50 / EC50, endothelial tube area, ADSC/ECFC co-culture, read-out: Anti-Angiogenesis): 2490 nM; IC50 ([5]; basal, read-out: Basal_Viability ATP SW480): 1250 nM; EC50 ([6]; IC50 / EC50, C2C12 beta-catenin translocation, read-out: Wnt Pathway): 373 nM; IC50 ([7]; basal, read-out: Basal_Viability ATP HCT116): 6300 nM; EC50 ([8]; IC50 / EC50, read-out: Insulin Secretion): > 10000 nM; EC50 ([9]; IC50 / EC50): > 10000 nM; IC50 ([10]; basal, read-out: Basal_Viability ATP SNU-C1): 2980 nM; IC50 ([11]; basal, read-out: Basal_Viability ATP Colo 320): 530 nM; IC50 ([12]; basal, read-out: Basal_Viability ATP HT-29): 8520 nM; IC50 ([15]; GSK3b inhibitor pretreated, read-out: GSK3b inh pretreated_Viability ATP HCT116): 1100 nM; EC50 ([16]; IC50 / EC50, NCI-H716, read-out: GLP 1 Secretion): > 10000 nM |
| COc1cc(NCc2ccc3nc(N)nc(N)c3c2C)cc(OC)c1OC [trimetrexate, reference compound] | > 20000 nM | > 20000 nM | > 20000 nM | > 20000 nM | > 20000 nM | 200 nM | 195 nM | 3 nM | 2.72 nM | 4400 nM | 4420 nM | 59 nM | 59.1 nM | 3.3 nM | 23.1 nM | > 10000 nM | 5130 nM | 386 nM | 21.2 nM | 3.92 nM | EC50 [6, 28]: 3 nM; IC50 [7, 29]: 23 nM; EC50 [8, 31]: > 10000 nM; IC50 [10, 32]: 5100 nM; IC50 [11, 34]: 390 nM; IC50 [12, 36]: 21 nM; IC50 [15, 38]: 4 nM; EC50 [16, 40]: > 10000 nM |
| Cc1cc(C2CCCCC2)n(O)c(=O)c1 [ciclopirox] |  |  |  |  |  |  | 316 nM |  | 233 nM |  | > 10000 nM |  | 469 nM | 1050 nM | 656 nM | > 10000 nM | > 20000 nM | 208 nM | 7040 nM | 390 nM | IC50 ([4]; kinase assay): > 20000 nM; EC50 [8, 41]: > 10000 nM; IC50 ([13]; kinase assay): > 20000 nM; IC50 ([14]; kinase assay): > 20000 nM; EC50 [16, 42]: > 10000 nM; IC50 ([17]; kinase assay): > 20000 nM; IC50 ([18]; kinase assay): > 20000 nM |
| Cc1nc2ccc(CN(C)c3ccc(C(=O)N[C@@H](CCC(=O)O)C(=O)O)s3)cc2c(=O)[nH]1 [raltitrexed, reference compound] | 3990 nM | > 20000 nM | > 20000 nM | > 20000 nM | > 20000 nM | > 20000 nM |  | 3 nM | 2.88 nM | 350 nM | 354 nM | 1 nM |  | 4.2 nM | 4.24 nM | > 10000 nM |  |  |  | 2.3 nM | EC50 [6, 28]: 4 nM; IC50 [7, 29]: 4 nM; EC50 [8, 31]: > 10000 nM; IC50 [10, 32]: > 20000 nM; IC50 [11, 34]: > 20000 nM; IC50 [12, 36]: > 20000 nM; IC50 [15, 38]: 2 nM; EC50 [16, 40]: > 10000 nM |
| COc1ccc(-c2ccc3cc(C(=O)O)ccc3c2)cc1C12CC3CC(CC(C3)C1)C2 [Adapalene] |  |  |  |  |  |  | 597 nM |  | 444 nM |  | 524 nM |  | 405 nM | > 10000 nM | 590 nM | > 10000 nM | 1780 nM | 787 nM | 1120 nM | 945 nM | IC50 ([4]; kinase assay): 7250 nM; EC50 [8, 41]: > 10000 nM; IC50 ([13]; kinase assay): > 20000 nM; IC50 ([14]; kinase assay): 5570 nM; EC50 [16, 42]: > 10000 nM; IC50 ([17]; kinase assay): > 20000 nM; IC50 ([18]; kinase assay): 7100 nM |
